Results published in US9034303B2, “Neuroprotective and neuro-restorative iron chelators and monoamine oxidase inhibitors and uses thereof” (priority 2010, dated 2015).
“Also recorded” adds a separate entry of the source. Where two headings read alike, the source gives them in different places. Marks after values point to notes of the source that are not given here.

Assays:
[1] = Stability in aqueous solution (PBS or saline) followed by HPLC; assay type: physicochemical; details: for Stability in aqueous solution (in words): PBS and/or saline solution; for Amount of compound remaining (%): 0.5 mM
Description: (§1) Using high pressure liquid chromatography (HPLC), the stability of each of the tested compounds was determined by following its respective chemical character over time in either phosphate buffered saline (PBS) and/or 0.85% saline solution (sodium chloride). In each case, 0.5 mM of the tested compound in PBS or saline solution was incubated at 25° C. or at 37° C. for 20 hours or, in some cases, up to two days (48 hours).

[2] = target: rat brain MAO-B (Rattus norvegicus (Rat), UniProt P19643); test: In vitro inhibition of rat brain MAO-B (14C-PEA substrate); assay type: biochemical; details: for IC50: estimated from FIG. 2, rat brain MAO-B, read-out: MAO-B IC50
Sequence of rat brain MAO-B (P19643 whole entry): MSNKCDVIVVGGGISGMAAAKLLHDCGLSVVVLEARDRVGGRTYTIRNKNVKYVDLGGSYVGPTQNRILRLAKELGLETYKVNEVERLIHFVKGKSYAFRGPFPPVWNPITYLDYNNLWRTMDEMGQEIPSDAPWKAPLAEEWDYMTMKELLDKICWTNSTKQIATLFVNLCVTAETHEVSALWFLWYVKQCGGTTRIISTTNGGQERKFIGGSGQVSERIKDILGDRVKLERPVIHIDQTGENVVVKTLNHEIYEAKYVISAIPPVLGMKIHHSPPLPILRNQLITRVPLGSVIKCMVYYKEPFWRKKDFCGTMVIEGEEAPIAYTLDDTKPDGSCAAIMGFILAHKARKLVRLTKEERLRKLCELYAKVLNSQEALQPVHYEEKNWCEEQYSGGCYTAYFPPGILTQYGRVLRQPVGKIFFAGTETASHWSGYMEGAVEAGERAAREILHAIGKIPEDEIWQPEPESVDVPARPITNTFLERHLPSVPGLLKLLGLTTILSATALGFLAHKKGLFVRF
Description: (§2) Rats are decapitated and the brains quickly taken into a weighted ice-cold sucrose buffer (0.32 M) and their weights determined. All subsequent procedures are performed at 0° C. The brains are homogenized in 0.32 M sucrose (one part tissue to 20 parts sucrose) in a Teflon glass homogenizer followed by the addition of sucrose buffer to a final concentration of 10% homogenate. The homogenates are centrifuged at 600 g for 15 min. The supernatant fractions are taken out and centrifuged at 4500 g for 30 min, the pellet diluted in 0.32 M sucrose buffer and kept frozen for later assaying of MAO.
(§3) MAO-A and MAO-B activities are determined in rat brain homogenate in vitro following incubation with varying concentrations of the test compounds.
The in vitro inhibitory activity of the compounds is tested against rat brain MAO-B. The test compounds are added to buffer containing 10^−7 M clorgylin and are incubated with the tissue homogenate for 30 or 60 min at 37° C. before addition of ^14C-PEA.
(§4) The test compound was added to a suitable dilution of the enzyme preparation (70 μg protein for MAO-B and 150 μg MAO-A assay) in 0.1 M phosphate buffer (pH 7.4). The mixture was incubated together with […], a specific inhibitor of MAO-B (for determination of MAO-A) or 0.05 M clorgylin, a specific inhibitor of MAO-A (for determination of MAO-B). Incubation was carried for 0.5 or 1 h at 37° C. before addition of ^14C-5-hydroxytryptamine binoxalate (5-HT) (100 or 400 μM) for determination of MAO-A, or ^14C-phenylethylamine (^14C-PEA) 100 or 400 μM for determination of MAO-B, and incubation continued for 30 min or 20 min, respectively. The reaction was stopped with 2 M ice-cold citric acid, and the metabolites were extracted and determined by liquid-scintillation counting in cpm units.
The reaction was stopped with 2 M ice-cold citric acid, and the metabolites were extracted with ethyl acetate and levels of radioactivity were determined by liquid-scintillation counting in CPM units. All assays were performed at least in duplicate and outcome was expressed as a mean±SEM. Data were analyzed by a Student's t test. Variations were considered statistically significant at a p value of 0.05.
(§5) MAO-A and MAO-B activity was measured using radioactive substrates. The substrate for MAO-A was 5 HT and for MAO-B was PEA. When measuring the activity of MAO-A, the MAO-B activity was inhibited with deprenyl and when measuring the activity of MAO-B the activity of MAO-A was inhibited with clorgylin. Blank samples were produced using TCP to inhibit both of the enzymes. The metabolites were extracted to toluene and read in a β-counter. The results are expressed in relative activity and normalized to the amount of protein in the tissue.

[3] = target: rat brain MAO-A (Rattus norvegicus (Rat), UniProt P21396); test: In vitro inhibition of rat brain MAO-A (14C-5-HT substrate); assay type: biochemical; details: for IC50: estimated from the data in FIG. 1, rat brain MAO-A, read-out: MAO-A IC50
Sequence of rat brain MAO-A (P21396 whole entry): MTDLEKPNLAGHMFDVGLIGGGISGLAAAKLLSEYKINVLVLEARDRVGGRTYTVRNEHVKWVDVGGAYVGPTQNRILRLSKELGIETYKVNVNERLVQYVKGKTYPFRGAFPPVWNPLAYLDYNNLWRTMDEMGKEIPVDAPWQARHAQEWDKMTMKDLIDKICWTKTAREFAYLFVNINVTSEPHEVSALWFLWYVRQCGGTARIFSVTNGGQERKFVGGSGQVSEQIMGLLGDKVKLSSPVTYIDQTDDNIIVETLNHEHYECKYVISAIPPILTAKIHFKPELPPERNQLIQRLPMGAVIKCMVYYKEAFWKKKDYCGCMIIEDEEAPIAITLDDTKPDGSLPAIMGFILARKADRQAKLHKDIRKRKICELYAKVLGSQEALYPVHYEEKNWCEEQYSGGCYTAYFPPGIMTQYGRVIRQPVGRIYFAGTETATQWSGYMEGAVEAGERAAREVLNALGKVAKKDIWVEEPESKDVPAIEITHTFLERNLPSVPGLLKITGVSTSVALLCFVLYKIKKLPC
Description: as §2, with “MAO. Protein concentration is determined with Bradford reagent at λ=595 nm, using BSA as a standard.” for “MAO.”
as §3
as §4, with “The activity of MAO-A and MAO-B was determined by the adapted method of Tipton & Youdim (Tipton K F, O'Sullivan J, Youdim M B, 1983, Encyclopedia of Neuroscience, 2004, G. Adelman and B. H. Smith, Elsevier). The test” for “The test”, “cpm units. […]” for “cpm units.”
as §5

[4] = Follow-up stability experiment at 37° C. in PBS; assay type: physicochemical
Description: as §1
In addition, in a follow-up experiment the instability of M30, and the stability of compounds 3, 7 and 8 was also confirmed at 37° C. in PBS, Table 2, below.

[5] = tested on: SHSY-5Y cells; test: Cytotoxicity in presence and absence of exogenous iron, SH-SY5Y; assay type: cell-based, human; details: iron alone, 20 μM
Description: (§6) The potential of compound 3 to be toxic in the presence of free iron was also tested. The iron complexation method was based on the method of Leanderson and Tagesson (Carcinogenesis, 17, 545-550, 1996) with some modifications. Iron (III) was prepared from ferric ammonium citrate (Sigma, F5879) at 80 mM in sterile distilled water. Compound 3 was prepared at a 200 mM concentration in DMSO. Before each experiment, the freshly prepared iron (III) solution was diluted to 0.4 mM in PBS II (PBS containing 0.90 mM Ca^2+ and 0.49 mM Mg^2+). Compound 3 stock solutions were diluted to 2, 0.2, and 0.02 mM with PBS II. Equal volumes of the 0.4 mM iron (III) solution and compound 3 solutions were added together to prepare iron/test article complex solutions containing 1, 0.1, and 0.01 mM compound 3 and 0.2 mM iron (III). The compound 3 DMSO stock solution was diluted in PBS II at 1, 0.1, or 0.01 mM and used as compound 3 control without iron. An equal volume of the 0.4 mM iron (III) solution was diluted in PBS II to prepare a control containing only iron.
(§7) The medium was removed from the plated cells (both cell lines) and replaced with fresh medium (90 μL). Iron/compound 3 complex or compound 3 in PBS II without iron was added to cells in triplicate (10 μL) to final compound 3 concentrations of 100, 10, and 1 μM and an iron (III) concentration of 20 μM. Wells containing no cells were used as the background control. PBS II was run as vehicle control. Iron only was run at a final concentration of 20 μM.
(§8) Cell viability was determined as described above and cytotoxicity was compared between treatments with and without iron complexation.

[6] = tested on: HepG2 cells; test: Cytotoxicity in presence and absence of exogenous iron, HepG2; assay type: cell-based, human; details: iron alone, 20 μM
Description: as §6, §7, §8

[7] = concentration 0.01 mM, rat brain extracts
[8] = concentration 0.1 mM, rat brain extracts

With `C#CCN(C)C(C)c1ccc(O)c2ncccc12` (stereo not shown) [5-(1-(methyl(prop-2-ynyl) amino)ethyl)quinolin-8-ol] the “Stability in aqueous solution (in words)” value [1] was “**Decomposition of 5-(1-(methyl(prop-2-ynyl) amino)ethyl)quinolin-8-ol occurred immediately upon dissolution in PBS aspredicted by the working hypothesis”.

For `C#CCN(C)C(C)c1ccc(O)c2ncccc12` (stereo not shown) [5-(1-(methyl(prop-2-ynyl)amino)ethyl)quinolin-8-ol] [5-[1-(methyl-2-propyn-1-ylamino)ethyl]-8-quinolinol], the “Stability in aqueous solution (in words)” value [1] was “decomposed immediately” and the “Amount of compound remaining (%)” value ([1]; PBS, 25° C., 0.5 hours) was 0.0** %.

For `C#CCN(C)CCCc1ccc(O)c2ncccc12` [Compound 4, 5-[3-(methyl-2-propyn-1-ylamino)propyl]-8-quinolinol], the “Stability in aqueous solution (in words)” value [1] was “highly stable chemically”, the “Amount of compound remaining (%)” value ([1]; PBS, 25° C., 0.5 hours) was 100% and the “Amount of compound remaining (%)” value ([1]; PBS, 25° C., 2 hours) was 100%. For the same compound, the “Amount of compound remaining (%)” value ([1]; PBS, 25° C., 20 hours) was 100%, the “Amount of compound remaining (%)” value ([1]; PBS, 25° C., 48 hours) was 100% and the “Amount of compound remaining (%)” value ([1]; saline, 25° C., 0.5 hours) was 100%. The “Amount of compound remaining (%)” value ([1]; saline, 25° C., 2 hours) was 100%, the “Amount of compound remaining (%)” value ([1]; saline, 25° C., 20 hours) was 100% and the “Amount of compound remaining (%)” value ([1]; saline, 25° C., 48 hours) was 100%. The IC50 [2] was 100 nM, the “Inhibition of rat brain MAO-B in vitro (in words)” value (“Inhibition of rat brain MAO-B” below) [2] was “potent inhibitors” and the IC50 ([3]; listed as compound 4) was ~200 nM. For the same compound, the IC50 [3] was 200 nM and the “Inhibition of rat brain MAO-A in vitro (in words)” value [3] was “potent inhibitors”.

In the case of `C#CCN(C)CCc1cc(C2CC2)c(O)c2ncccc12` [Compound 7, 7-cyclopropyl-5-[2-(methyl-2-propyn-1-ylamino)ethyl]-8-quinolinol], the “Amount of compound remaining (%)” value ([4]; 3 hours) is reported as 99.7%, the “Amount of compound remaining (%)” value ([4]; 8 hours) is reported as 97.7% and the “Amount of compound remaining (%)” value ([4]; 24 hours) is reported as 94.1%. For the same compound, the “Amount of compound remaining (%)” value ([4]; 48 hours) was 100%.

For `C#CCN(C)CCc1cc(F)c(O)c2ncccc12` [Compound 8, 7-fluoro-5-[2-(methyl-2-propyn-1-ylamino)ethyl]-8-quinolinol], the “Amount of compound remaining (%)” value ([4]; 3 hours) was “≧100%”, the “Amount of compound remaining (%)” value ([4]; 8 hours) was 96.7% and the “Amount of compound remaining (%)” value ([4]; 24 hours) was “≧100%”. The “Amount of compound remaining (%)” value ([4]; 48 hours) was “≧100%”.

With `[Fe+3]` [Iron] the “SHSY-5Y cell death (%)” value [5] was −1.0% and the “HepG2 cell death (%)” value [6] was 1.6%.

For `C#CCN(C)Cc1ccc(OC)c2ncccc12` [O-Methyl-M30], the inhibition at 10 µM [2, 7] was 87.8%, the inhibition at 100 µM [2, 8] was 97.3% and the IC50 [2] was 20 to 40 nM. The “Inhibition of rat brain MAO-B” value [2] was “potent inhibitors”, the “Inhibition of rat brain MAO-B” value ([2]; listed as O-methyl M30) was “inhibits both brain MAO-A and MAO-B at apparently similar levels” and the inhibition at 10 µM [3, 7] was 98.5%. The inhibition at 100 µM [3, 8] was 99.7%, the IC50 [3] was 250 to 300 nM and the “Inhibition of rat brain MAO-A in vitro (in words)” value [3] was “potent inhibitors”. The “Inhibition of rat brain MAO-A in vitro (in words)” value ([3]; listed as O-methyl M30) was “inhibits both brain MAO-A and MAO-B at apparently similar levels”.

With `C#CCN(C)CCc1ccc(OC)c2ncccc12` [[O-Methyl-Compound 3], 8-methoxy-N-methyl-N-2-propyn-1-yl-5-quinolineethanamine] the “Stability in aqueous solution (in words)” value [1] was “highly stable chemically; also recorded: stable in PBS at 37 °C for at least two days”, the “Amount of compound remaining (%)” value ([1]; PBS, 25° C., 0.5 hours) was 100% and the “Amount of compound remaining (%)” value ([1]; PBS, 25° C., 2 hours) was 100%. The “Amount of compound remaining (%)” value ([1]; PBS, 25° C., 20 hours) was 100%, the “Amount of compound remaining (%)” value ([1]; PBS, 25° C., 48 hours) was 100% and the “Amount of compound remaining (%)” value ([1]; saline, 37° C., 0.5 hours) was 100%. The “Amount of compound remaining (%)” value ([1]; saline, 37° C., 2 hours) was 100%, the “Amount of compound remaining (%)” value ([1]; saline, 37° C., 20 hours) was 100% and the “Amount of compound remaining (%)” value ([1]; saline, 37° C., 48 hours) was 100%.
